Some test systems named below: SR leukemia; NCI-H460 lung; MDA-MB-231 breast; HCT-116 colon; SK-MEL-5 melanoma; MDA-N; MALME-3M melanoma; SK-OV-3 ovarian; PC-3 prostate; HL-60(TB) leukemia; HOP-62 NSCLC; RXF 393 renal; 786-0 renal; CAKI-1 renal; M14 melanoma; EKVX NSCLC.
What all share (assay): NCI-60 cell line screen, 48 h

SMILES strings stand for the structures.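 Cells were grown in 96-well plates and exposed to each compound for 48 hours at five concentrations; endpoints were interpolated linearly between bracketing concentrations, or set to the highest concentration if not reached. TGI marks complete inhibition of growth.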

For the molecule `CN(C)c1ccc(/C=c2/c3ccccc3n3c2c2c([n+]3C)CCCC2)cc1`, the TGI in the assay on SR leukemia turned out to be 1.06 µM; with NCI-H460 lung it was 0.758 µM; in the assay with MDA-MB-231 breast, 2.79 µM; in the assay with HCT-116 colon, 0.913 µM; in the assay on SK-MEL-5 melanoma, 0.217 µM; with MDA-N it was 1.27 µM. For the same molecule, the TGI in the assay with MALME-3M melanoma was found to be 0.866 µM; in the assay on SK-OV-3 ovarian it was 2.07 µM; in the assay with PC-3 prostate, 2.06 µM; in the assay with HL-60(TB) leukemia it was 0.363 µM; with HOP-62 NSCLC, 1.58 µM; in the assay with RXF 393 renal, 0.616 µM. Moreover, the TGI turned out to be 3.24 µM in the assay with 786-0 renal, 4.8 µM with CAKI-1 renal, 1.5 µM in the assay with M14 melanoma and 0.353 µM with EKVX NSCLC.
For the molecule `CC(=O)c1ccccc1NP(=O)(c1ccccc1)c1ccccc1`, the TGI with SR leukemia, with NCI-H460 lung, with MDA-MB-231 breast, in the assay with HCT-116 colon, in the assay on SK-MEL-5 melanoma and in the assay on MDA-N was over 100 µM throughout. Moreover, the TGI with MALME-3M melanoma was over 100 µM; in the assay on SK-OV-3 ovarian, 60.8 µM; with PC-3 prostate, over 100 µM; with HL-60(TB) leukemia, 87.7 µM; in the assay on HOP-62 NSCLC, over 100 µM; in the assay with RXF 393 renal, over 100 µM. Besides, the TGI in the assay on 786-0 renal, with CAKI-1 renal, with M14 melanoma and with EKVX NSCLC was over 100 µM in each case.

Source of the values: PubChem BioAssay (NCI).
